Literature values as cited in patent publication US20220117919A1, “ENHANCED BIOAVAILABILITY OF N-(2,6-BIS(1-METHYLETHYL)PHENYL)-N'-((1-(4-(DIMETHYLAMINO)-PHENYL)CYCLOPENTYL)METHYL)UREA HYDROCHLORIDE” (The Regents of the University of Michigan, priority 2015, published 2022).

Test system: adrenocortical carcinoma (ACC)
Settings: cited from earlier work

Clc1ccc(C(c2ccccc2Cl)C(Cl)Cl)cc1 (centres unmarked) [mitotane]
average delay of disease progression (ACC patients that derive a therapeutic benefit): five
share of patients with increased progression-free survival (ACC patients): one-quarter to one-third
